Assay results: patent US8338565B2, “Macrocyclic compounds for inhibition of tumor necrosis factor alpha” (Ensemble Therapeutics Corporation, priority 2008, dated 2012)
pIC50: −log10 of the molar value. Numbered stars: 1 amine (or outer) side, 2 acyl side, 3 side chain; on linkers, the order of the positions; unused ones are H or OH. Bridge positions count the residues as written; N and C are the ends. Square brackets hold non-standard residues; d marks the D form. Peptide text beside a SMILES is read from it. Bip = N[C@@H](Cc1ccc(-c2ccccc2)cc1)C(=O)O; Phe(4-NH2) = Nc1ccc(C[C@H](N)C(=O)O)cc1; d(hPhe) = N[C@H](CCc1ccccc1)C(=O)O; Suc = O=C(CCC(=O)[*:2])[*:1]

Key:
[1] = biological target: T1, TNFα / TNFα receptor (TNFα R1/Fc) (Homo sapiens, UniProt P01375); experiment: Inhibition of binding of TNFα to the TNFα receptor (plate ELISA competition); settings: Table 2; read-out: Activity (IC50, inhibition of TNFα binding to TNFα R1/Fc)
T1 construct: purchased R&D Systems
Summary of the method: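 Compound dilutions were preincubated 30 min at RT with 8.33 nM TNFα R1/Fc in PBST with 2% DMSO, then added to wells coated with 15 nM TNFα for 30 min. Bound receptor was detected with HRP anti-human Fc and TMB, read as A450.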

rat paw edema model [2] = experiment: Rat paw edema model (carrageenan), anti-inflammatory activity; type: in vivo, Sprague-Dawley (SD) rats
Procedure: Compounds 3, 4, 10 and 202 were tested in a rat paw edema model to determine anti-inflammatory activity. Seven groups (one for Vehicle A [15 mL PEG400, 3 mL Graves Grain alcohol (190 proof), 1.8 mL dimethylacetamide and 10.2 mL deionized water] alone as a negative control, one for Vehicle B [0.1M NaHCO3] alone as a negative control, one for each of the four test compounds dissolved in Vehicle A, and one for indomethacin dissolved in Vehicle B as a positive control), each group containing six Sprague-Dawley (SD) rats (180-200 g) randomized by weight. Initial paw volumes were measured by placing the right hind limb of the rat up to the top of the hock in a beaker of water sitting on a scale that had been tared to zero and recording the readout.
Rats were pre-treated with either i) one of the test compounds, or ii) a positive or negative control. Vehicle A alone and test compound dissolved in Vehicle A (Compound 3-1.0 mg/kg; Compound 4-0.4 mg/kg; Compound 10-0.5 mg/kg; Compound 202-0.3 mg/kg) were administered by intravenous injection. Vehicle B alone and indomethacin (5 mg/kg in 0.1M NaHCO3) was administered by intraperitoneal injection. Thirty minutes after this pretreatment, rats were anesthetized and injected with 0.1 mL of carrageenan (10 mg/mL in water) in the subplantar region of the right hind foot using a ½ inch 26 gauge needle attached to a 1 cc syringe.
At 2, 4 and 6 hours post-carrageenan injection, the right hind foot of each rat was measured for paw volume as described above.
We next investigated the effect of varying intravenous doses of Compound 202 (0.05, 0.10, 0.30, and 1.00 mg/kg) in the same model using the same protocol (6 rats per group). […] We also investigated the affect of oral dosing (10 mg/kg) of Compound 202 in the same model. For oral dosing, a 2.5 mg/mL suspension of Compound 202 was prepared in Vehicle A. Rats were orally administered 4 mL/kg of that suspension.

rat paw edema model [3] = experiment: as above; type: in vivo, Sprague-Dawley (SD) rats; settings: Table 10; 3.0 mg/kg PO; 2 h post-carrageenan

T1 sequence (P01375 77-233 limits assumed, species assumed): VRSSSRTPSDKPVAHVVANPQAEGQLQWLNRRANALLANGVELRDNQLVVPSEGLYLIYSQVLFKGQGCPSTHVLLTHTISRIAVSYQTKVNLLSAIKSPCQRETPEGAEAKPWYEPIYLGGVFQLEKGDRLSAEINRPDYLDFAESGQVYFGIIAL

O=C1CCC(=O)N[C@H](CCc2ccccc2)C(=O)N[C@@H](Cc2ccc(-c3ccccc3)cc2)C(=O)N[C@H](Cc2ccccc2)C(=O)N[C@H](C(=O)N[C@@H](Cc2ccccc2)C(=O)O)Cc2ccc(cc2)N1 [Compound 202] ([d(hPhe)][Bip][dF][Phe(4-NH2)]F-OH; linker N-4 via Suc)
pIC50 [1]: > 5.00
Change in Paw Volume (rat paw edema model [2]; Table 3, 0.3 mg/kg IV, 2 h post-carrageenan): 0.42 ± 0.20 mL
Change in Paw Volume (rat paw edema model [2]; Table 3, 0.3 mg/kg IV, 4 h post-carrageenan): 1.01 ± 0.31 mL
Change in Paw Volume (rat paw edema model [2]; Table 3, 0.3 mg/kg IV, 6 h post-carrageenan): 1.16 ± 0.20 mL
Change in Paw Volume (rat paw edema model [2]; Table 9, 0.05 mg/kg IV, 2 h post-carrageenan): 1.20 ± 0.09 mL
Change in Paw Volume (rat paw edema model [2]; Table 9, 0.05 mg/kg IV, 4 h post-carrageenan): 1.56 ± 0.22 mL
Change in Paw Volume (rat paw edema model [2]; Table 9, 0.05 mg/kg IV, 6 h post-carrageenan): 1.67 ± 0.18 mL
Change in Paw Volume (rat paw edema model [2]; Table 9, 0.1 mg/kg IV, 2 h post-carrageenan): 0.99 ± 0.15 mL
Change in Paw Volume (rat paw edema model [2]; Table 9, 0.1 mg/kg IV, 4 h post-carrageenan): 1.41 ± 0.26 mL
Change in Paw Volume (rat paw edema model [2]; Table 9, 0.1 mg/kg IV, 6 h post-carrageenan): 1.62 ± 0.19 mL
Change in Paw Volume (rat paw edema model [2]; Table 9, 0.3 mg/kg IV, 2 h post-carrageenan): 0.70 ± 0.13 mL
Change in Paw Volume (rat paw edema model [2]; Table 9, 0.3 mg/kg IV, 4 h post-carrageenan): 1.09 ± 0.06 mL
Change in Paw Volume (rat paw edema model [2]; Table 9, 0.3 mg/kg IV, 6 h post-carrageenan): 1.15 ± 0.12 mL
Change in Paw Volume (rat paw edema model [2]; Table 9, 1.0 mg/kg IV, 2 h post-carrageenan): 0.60 ± 0.04 mL
Change in Paw Volume (rat paw edema model [2]; Table 9, 1.0 mg/kg IV, 4 h post-carrageenan): 0.98 ± 0.08 mL
Change in Paw Volume (rat paw edema model [2]; Table 9, 1.0 mg/kg IV, 6 h post-carrageenan): 1.14 ± 0.05 mL
Change in Paw Volume (rat paw edema model [2]; Table 9, 10 mg/kg PO (suspension in Vehicle A), 2 h post-carrageenan): 1.12 ± 0.15 mL
Change in Paw Volume (rat paw edema model [2]; Table 9, 10 mg/kg PO (suspension in Vehicle A), 4 h post-carrageenan): 1.35 ± 0.27 mL
Change in Paw Volume (rat paw edema model [2]; Table 9, 10 mg/kg PO (suspension in Vehicle A), 6 h post-carrageenan): 1.42 ± 0.22 mL
Change in Paw Volume (rat paw edema model [2]; Table 10, 0.3 mg/kg PO, 2 h post-carrageenan): 1.49 ± 0.14 mL
Change in Paw Volume (rat paw edema model [2]; Table 10, 0.3 mg/kg PO, 4 h post-carrageenan): 1.59 ± 0013 mL
Change in Paw Volume (rat paw edema model [2]; Table 10, 0.3 mg/kg PO, 6 h post-carrageenan): 1.65 ± 0.10 mL
Change in Paw Volume (rat paw edema model [2]; Table 10, 1.0 mg/kg PO, 2 h post-carrageenan): 1.43 ± 0.18 mL
Change in Paw Volume (rat paw edema model [2]; Table 10, 1.0 mg/kg PO, 4 h post-carrageenan): 1.45 ± 0.16 mL
Change in Paw Volume (rat paw edema model [2]; Table 10, 1.0 mg/kg PO, 6 h post-carrageenan): 1.62 ± 0.14 mL
Change in Paw Volume (rat paw edema model [2]; Table 10, 3.0 mg/kg PO, 4 h post-carrageenan): 1.42 ± 0.09 mL
Change in Paw Volume (rat paw edema model [2]; Table 10, 3.0 mg/kg PO, 6 h post-carrageenan): 1.50 ± 0.09 mL
Change in Paw Volume (rat paw edema model [2]; Table 10, 10 mg/kg PO, 2 h post-carrageenan): 1.17 ± 0.17 mL
Change in Paw Volume (rat paw edema model [2]; Table 10, 10 mg/kg PO, 4 h post-carrageenan): 1.29 ± 0.06 mL
Change in Paw Volume (rat paw edema model [2]; Table 10, 10 mg/kg PO, 6 h post-carrageenan): 1.51 ± 0.06 mL
Change in Paw Volume (rat paw edema model [3]): 1.25 ± 0.08 mL
